# Data published in patent US20220079912A1, “ANTICANCER FORMULATION” (University of Mississippi, priority 2018, published 2022).
# Experiments:
# [1] = test system: T98G glioblastoma cells; assay: Colony formation assay, combination with DHEA; format: cell-based, human; settings: 12 h (other inhibitors 24 h), FIG. 19
# Method: GH, a glycolysis inhibitor, is cytotoxic to human tumor cells when used in combination with a Glucose-6-Phosphate Dehydrogenase inhibitor, dehydroepiandrosterone, (DHEA). To compensate for high ROS levels, cancer cells increase glycolysis and pentose phosphate cycle to provide reducing equivalents (NADH and NADPH) to neutralize hydro peroxides (15). […] The other glycolysis inhibitors tested in combination with DHEA were ineffective even at 24 h.
# [2] = test system: BNC16 patient derived Glioblastoma cells; assay: Colony formation assay, combination with DHEA; format: cell-based, human; settings: BNC16, 24 h, FIG. 20
# [3] = test system: TXNIP protein levels; assay: Western blot of TXNIP protein, T98G cell line; format: cell-based, human; settings: FIG. 15, FIG. 17
# Source text: (§1) AMPK activation has been previously shown to phosphorylate and cause the degradation of TXNIP during energy stress (13).
# [4] = test system: cancer stem cells (CSCs) grown from BNC3 patient derived Glioblastoma cells; assay: Cell viability by Trypan Blue exclusion cell count, combination with DHEA; format: cell-based, human; settings: 24 h, FIGS. 21A-B
# [5] = test system: B16 cells; assay: Glucose transport (2-NBDG accumulation); format: cell-based, mouse; settings: B16, treated for one hour followed by 2-NBDG for one hour
# [6] = test system: MDA-MB-231 human breast cancer cells; assay: Cell proliferation / cell survival; format: cell-based; settings: MDA-MB-231, varying concentrations, 48 hours, dose dependent, FIG. 1
# Method: (§2) Example 1: trans-Gnetin H (GH)—Trans-Gnetin H inhibits cell proliferation. […] B16 mouse melanoma cells, T98G glioblastoma cells, and MDA-MB-231 human breast cancer cells were treated with varying concentrations of GH for 48 hours with cell survival measured. The B16 mouse melanoma cell line was the most sensitive to the anti-proliferative action of GH, perhaps due to the highly glycolytic nature of these cells and/or that they contain wild type p53.
# [7] = test system: B16 mouse melanoma cells; assay: Cell proliferation / cell survival; format: cell-based; settings: B16, varying concentrations, 48 hours, dose dependent, FIG. 1
# Method: as §2
# [8] = test system: B16 cells; assay: Lactic acid export (intracellular lactic acid levels); format: cell-based, mouse; settings: FIG. 4
# Method: To prevent the buildup of lactic acid within the cell a family of monocarboxylate transporters (MCT) functions to transport lactic acid out of the cell (10). To determine if GH inhibits lactic acid export from the cell, and in this manner inhibits the accumulation of lactic acid in the cell culture medium, intracellular lactic acid levels were measured. If GH inhibited lactic acid export, treatment of cells with GH would result in the increase in intracellular lactic acid levels. As a positive control the MCT1 inhibitor AZD3965 was used.
# [9] = test system: TXNIP protein levels; assay: Western blot of TXNIP protein, MDA-MB-231 cell line; format: cell-based, human; settings: FIG. 16, FIG. 18
# Source text: as §1
# [10] = test system: MDA-MB-231 breast cancer cells; assay: Colony formation assay, combination with DHEA; format: cell-based, human; settings: MDA-MB-231, 24 h, FIG. 20
# [11] = GH 8 μM 6 hrs or 3 hrs, 2-DG 25 mM, OXA 25 mM, BPX 25 μM, DCA 25 mM, 6 hr
structure (smiles),measurement,setting,value
"Oc1ccc(/C=C/c2c3c(cc4c2[C@H](c2cc(O)cc(O)c2)[C@@H](c2ccc(O)cc2)O4)O[C@H](c2ccc(O)cc2)[C@H]3c2cc(O)cc(O)c2)cc1 (relative stereo) [GH, trans-Gnetin H]",cytotoxicity in combination with DHEA (cell staining),[1],rapidly cytotoxic
same,cytotoxicity in combination with DHEA (cell staining),[2],cytotoxic
same,"TXNIP protein levels, in combination with Ph",[3],reduction of TXNIP protein levels
same,"TXNIP protein levels, agent alone",[3]; [11],dramatic reduction in the levels of TXNIP protein
same,cytotoxicity in combination with DHEA (percentage of cell viability),[4],cytotoxic
same,effect on accumulation of 2-NBDG (glucose transport),[5],did not influence the accumulation
same,inhibition of cell proliferation (cell survival),[6],inhibits the proliferation
same,inhibition of cell proliferation (cell survival),[7],inhibits the proliferation
same,effect on intracellular lactic acid,[8],did not increase intracellular lactic acid
same,"TXNIP protein levels, in combination with Ph",[9],reduction of TXNIP protein levels
same,"TXNIP protein levels, agent alone",[9]; [11],dramatic reduction in the levels of TXNIP protein
same,cytotoxicity in combination with DHEA (cell staining),[10],cytotoxic
